For 20 molecules, inhibition of growth and inhibition in vivo results are on record in ChEMBL document CHEMBL3045323, “Synthesis, anti-inflammatory and anticancer activity evaluation of some mono- and bis-Schiffs bases” (2012).

Common to all, as to format: functional
One test concerns HepG2. The test can be described thus: Cytotoxicity against Homo sapiens (human) HepG2 cells assessed as growth inhibition at 1 x 10^-5 M after 48 hr by SRB assay. The conditions noted are these: HepG2, 48 h, read-out: GI. (In general: Sulforhodamine B stains cellular protein and so reports cell mass.)
The test system of a further test is HCT-15. As to the kind of experiment: Cytotoxicity against Homo sapiens (human) HCT15 cells assessed as growth inhibition at 1 x 10^-5 M after 48 hr by SRB assay. Conditions: HCT-15, 48 h, read-out: GI.
The next test deals with T47D. The test can be described thus: Cytotoxicity against Homo sapiens (human) T47D cells assessed as growth inhibition at 1 x 10^-5 M after 48 hr by SRB assay. Conditions: read-out: GI.
The test system of the next test is PA-1. As to the kind of experiment: Cytotoxicity against Homo sapiens (human) PA1 cells assessed as growth inhibition at 1 x 10^-5 M after 48 hr by SRB assay. The conditions noted are these: PA-1, 48 h, read-out: GI.
Another test has as its system NCI-H522. As to the kind of experiment: Cytotoxicity against Homo sapiens (human) NCI-H522 cells assessed as growth inhibition at 1 x 10^-5 M after 48 hr by SRB assay. The conditions noted are these: NCI-H522, 48 h, read-out: GI.
Another test deals with Rattus norvegicus. As to the kind of experiment: Anti-inflammatory activity inRattus norvegicus albino (rat) assessed as inhibition of carrageenan-induced paw edema at 50 mg/kg, po administered for 30 min followed by carrageenan challenge measured after 1 to 3 hr relative to control. (In general: In the carrageenan paw model, swelling and tenderness develop within hours.)

Each structure is given as a SMILES string. Starred links: 1 amine or outer side, 2 acyl side, 3 side chain; linkers in the order of their positions; H or OH if unused. Positions of bridges follow the written chain, without caps; N, C: chain ends. Non-standard residues stand in square brackets, D forms with d. Residues, ends and D or L forms follow the SMILES beside them. Chains are numbered I, II in the order given. Actinocin(1to9) = Cc1c2oc3c(C)ccc(C(=O)[*:2])c3nc-2c(C(=O)[*:1])c(N)c1=O; NMeV = CN[C@H](C(=O)O)C(C)C; Sar = CNCC(=O)O

As a reminder, the inhibition in vivo is the percentage by which the read-out fell short of the control.

Turning to `COc1cc(/C=N/CC2CCCO2)ccc1O` (stereo unspecified), the inhibition of growth at 10 µM in the test with HepG2 stood at 1%; in the test with HCT-15 it was 24%; with T47D, 25%; with PA-1, 13%; in the test with NCI-H522, 17%. Further, in the test on Rattus norvegicus, the inhibition in vivo at 50 mg/kg is 14%.

Turning to `COc1cc(/C=N/CCCn2ccnc2)ccc1O`, the inhibition of growth at 10 µM is 11% in the test with HepG2; 1% with HCT-15; 15% in the test with T47D; 16% in the test on PA-1; 22% in the test with NCI-H522. For the same molecule, the inhibition in vivo at 50 mg/kg with Rattus norvegicus is 0%.

As to `COc1cc(/C=N/CCN2CCNCC2)ccc1O`, the inhibition of growth at 10 µM was 30% in the test on HepG2; 4% in the test with HCT-15; 25% in the test with T47D; 39% in the test with PA-1; 25% in the test on NCI-H522. Also, in the test with Rattus norvegicus, the inhibition in vivo at 50 mg/kg was 18%.

Take `COc1ccc(OC)c(/C=N/CC2CCCO2)c1` (stereo unspecified): the inhibition of growth at 10 µM was determined as 25% with HepG2; 0% in the test on HCT-15; 33% in the test with T47D; 38% in the test with PA-1; 15% with NCI-H522. Moreover, the inhibition in vivo at 50 mg/kg in the test with Rattus norvegicus was determined as 16%.

Take `COc1ccc(OC)c(/C=N/CCCn2ccnc2)c1`: the inhibition of growth at 10 µM was 24% with HepG2; 3% in the test with HCT-15; 29% in the test with T47D; 25% in the test on PA-1; 24% with NCI-H522. In the test with Rattus norvegicus, the inhibition in vivo at 50 mg/kg was determined as 0%.

On to `COc1ccc(OC)c(/C=N/CCN2CCNCC2)c1`, for which the inhibition of growth at 10 µM with HepG2 amounted to 22%; in the test on HCT-15 it was 4%; with T47D, 28%; in the test with PA-1, 16%; in the test with NCI-H522, 49%. Besides, the inhibition in vivo at 50 mg/kg in the test with Rattus norvegicus came to 21%.

`C(=N\CC1CCCO1)/c1ccco1` (stereo unspecified): the inhibition of growth at 10 µM with HepG2 came to 20%; in the test on HCT-15, 4%; with T47D, 12%; with PA-1, 16%; in the test with NCI-H522 it was 15%. In addition, in the test with Rattus norvegicus, the inhibition in vivo at 50 mg/kg amounted to 26%.

`C(=N\CCCn1ccnc1)/c1ccco1`: the inhibition of growth at 10 µM was determined as 1% in the test on HepG2; 1% in the test on HCT-15; 16% in the test on T47D; 13% with PA-1; 29% with NCI-H522. Also, in the test on Rattus norvegicus, the inhibition in vivo at 50 mg/kg turned out to be 28%.

On to `C(=N\CCN1CCNCC1)/c1ccco1`, for which the inhibition of growth at 10 µM was 18% in the test on HepG2; 5% with HCT-15; 21% with T47D; 35% in the test on PA-1; 19% in the test on NCI-H522. In addition, the inhibition in vivo at 50 mg/kg with Rattus norvegicus worked out at 22%.

For `COc1cc(/C=N/c2n[nH]c(/N=C/c3ccc(O)c(OC)c3)n2)ccc1O`, the inhibition of growth at 10 µM is 14% in the test with HepG2; 4% with HCT-15; 38% with T47D; 40% with PA-1; 9% in the test on NCI-H522. Besides, the inhibition in vivo at 50 mg/kg in the test on Rattus norvegicus amounted to 26%.

`COc1cc(/C=N/CCCN2CCN(CCC/N=C/c3ccc(O)c(OC)c3)CC2)ccc1O`: the inhibition of growth at 10 µM in the test on HepG2 was 3%; in the test on HCT-15, 5%; in the test with T47D it was 18%; in the test on PA-1 it was 51%; with NCI-H522, 1%. In addition, the inhibition in vivo at 50 mg/kg in the test on Rattus norvegicus came out at 25%.

Regarding `COc1ccc(OC)c(/C=N/c2n[nH]c(/N=C/c3cc(OC)ccc3OC)n2)c1`, the inhibition of growth at 10 µM in the test with HepG2 worked out at 10%; in the test on HCT-15, 5%; in the test with T47D it was 41%; with PA-1, 53%; in the test on NCI-H522 it was 15%. Further, in the test with Rattus norvegicus, the inhibition in vivo at 50 mg/kg turned out to be 22%.

Take `COc1ccc(OC)c(/C=N/CCCN2CCN(CCC/N=C/c3cc(OC)ccc3OC)CC2)c1`: the inhibition of growth at 10 µM with HepG2 came to 8%; in the test on HCT-15, 7%; with T47D it was 24%; with PA-1 it was 62%; in the test on NCI-H522, 13%. In addition, the inhibition in vivo at 50 mg/kg in the test with Rattus norvegicus was 20%.

As to `C(=N\c1n[nH]c(/N=C/c2ccco2)n1)/c1ccco1`, the inhibition of growth at 10 µM with HepG2 worked out at 25%; in the test with HCT-15, 3%; in the test on T47D, 30%; with PA-1, 48%; with NCI-H522, 26%. Moreover, the inhibition in vivo at 50 mg/kg with Rattus norvegicus was found to be 11%.

On to `C(=N\CCCN1CCN(CCC/N=C/c2ccco2)CC1)/c1ccco1`, for which the inhibition of growth at 10 µM turned out to be 10% in the test on HepG2; 6% in the test with HCT-15; 9% in the test with T47D; 43% in the test with PA-1; 5% in the test on NCI-H522. In addition, in the test with Rattus norvegicus, the inhibition in vivo at 50 mg/kg stood at 30%.

As to `C[C@@H]1C[C@@H]([C@H](O)CC2CC(=O)NC(=O)C2)C(=O)[C@@H](C)C1` [CYCLOHEXIMIDE], the inhibition of growth at 10 µM worked out at 14% in the test with HepG2; 5% with HCT-15; 30% in the test with T47D; 82% with PA-1; 20% with NCI-H522.

`O=P1(N(CCCl)CCCl)NCCCO1` (stereo unspecified) [CYCLOPHOSPHAMIDE ANHYDROUS]: the inhibition of growth at 10 µM with HepG2 is 24%; with HCT-15, 7%; with T47D, 36%; with PA-1 it was 21%; with NCI-H522 it was 7%.

Consider `Cc1c2oc3c(C)ccc(C(=O)N[C@@H]4C(=O)N[C@H](C(C)C)C(=O)N5CCC[C@H]5C(=O)N(C)CC(=O)N(C)[C@@H](C(C)C)C(=O)O[C@@H]4C)c3nc-2c(C(=O)N[C@@H]2C(=O)N[C@H](C(C)C)C(=O)N3CCC[C@H]3C(=O)N(C)CC(=O)N(C)[C@@H](C(C)C)C(=O)O[C@@H]2C)c(N)c1=O` [DACTINOMYCIN] (I: T[dV]P[Sar][NMeV] / II: T[dV]P[Sar][NMeV]; ester I:1-I:C, II:1-II:C; linker I:N-II:N via Actinocin(1to9)), for which the inhibition of growth at 10 µM came to 42% in the test with HepG2; 49% in the test with HCT-15; 21% with T47D; 93% in the test on PA-1; 59% with NCI-H522.

In the case of `O=c1[nH]cc(F)c(=O)[nH]1` [FLUOROURACIL], the inhibition of growth at 10 µM with HepG2 was determined as 33%; in the test on HCT-15, 21%; with T47D it was 22%; with PA-1 it was 27%; with NCI-H522, 51%.

As to `CC(C)Cc1ccc(C(C)C(=O)O)cc1` (stereo unspecified) [IBUPROFEN], in the test on Rattus norvegicus, the inhibition in vivo at 50 mg/kg was determined as 39%.
